These results are taken from US12077483B2, “Modified amine lipids” (Intellia Therapeutics, Inc., priority 2018, dated 2024).

Data set [1] in a line: pKa of amine lipid by TNS fluorescence. The format is physicochemical. Particulars: probe TNS (6-(p-toluidino)-2-naphthalenesulfonic acid sodium salt), unformulated amine lipid in ethanol, sodium phosphate buffers -9.0. Summed up: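 pKa derived from a sigmoidal fit of normalized TNS fluorescence (321 nm excitation, 448 nm emission) versus pH. Lipid from ethanol stock diluted to about 100 μM final in 0.1 M phosphate buffers, pH 4.5–9.0.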

The subject of a further data set is mouse B2M gene. The data set is described as follows: In vivo editing in mouse liver, LNP with Cas9 mRNA and sgRNA G650, NGS. Conditions: Table 3; guide G650; CD-1 female mice, 0.1 mpk i.v., liver at 6 or 7 days; Exp. 2-7. Here is the method: LNPs were prepared using various amine lipids in a 4-component lipid system consisting of an ionizable lipid (e.g. an amine lipid), DSPC, cholesterol and PEG-2k-DMG. In assays for percent liver editing in mice, Cas9 mRNA and chemically modified sgRNA targeting a mouse sequence were formulated in LNPs, at either a 1:1 w/w ratio or a 1:2 w/w ratio.
The lipid components were dissolved in 100% ethanol with the lipid component molar ratios described below. The chemically modified sgRNA and Cas9 mRNA were combined and dissolved in 25 mM citrate, 100 mM NaCl, pH 5.0, resulting in a concentration of total RNA cargo of approximately 0.45 mg/mL. The LNPs were formulated with an N/P ratio of about 6, with the ratio of chemically modified sgRNA: Cas9 mRNA at either a 1:1 or 1:2 w/w ratio as described below.
CD-1 female mice, ranging from 6-10 weeks of age were used in each study. Animals were weighed and grouped according to body weight for preparing dosing solutions based on group average weight. LNPs were dosed via the lateral tail vein in a volume of 0.2 mL per animal (approximately 10 mL per kilogram body weight). The animals were periodically observed for adverse effects for at least 24 hours post dose.
For studies measuring in vivo editing in liver, CD-1 female mice were dosed at 0.1 mpk unless otherwise noted. Animals were euthanized at 6 or 7 days by exsanguinationvia cardiac puncture under isoflourane anesthesia. Liver tissue was collected from each animal for DNA extraction and analysis. Blood was collected into serum separator tubes or into tubes containing buffered sodium citrate for plasma as described herein. Cohorts of mice were measured for editing by Next-Generation Sequencing (NGS).
In brief, to quantitatively determine the efficiency of editing at the target location in the genome, genomic DNA was isolated and deep sequencing was utilized to identify the presence of insertions and deletions introduced by gene editing.
PCR primers were designed around the target site (e.g., B2M), and the genomic area of interest was amplified. Additional PCR was performed according to the manufacturer's protocols (Illumina) to add the necessary chemistry for sequencing. The amplicons were sequenced on an Illumina MiSeq instrument. The reads were aligned to the relevant reference genome (e.g., GRCm38) after eliminating those having low quality scores. The resulting files containing the reads were mapped to the reference genome (BAM files), where reads that overlapped the target region of interest were selected and the number of wild type reads versus the number of reads which contain an insertion, substitution, or deletion was calculated.
The editing percentage (e.g., the “editing efficiency” or “percent editing”) is defined as the total number of sequence reads with insertions or deletions over the total number of sequence reads, including wild type.
We assessed in vivo editing efficiency for materials delivered with formulations including various amine lipid compounds. Editing was measured using either G282 (SEQ ID No: 1) which targets the mouse TTR gene or G650 (SEQ ID No. 2) which targets the mouse B2M gene. Lipids described above were assessed for efficacy through in vivo editing experiments. LNPs were formulated at a 1:1 w/w ratio of sgRNA to Cas9 mRNA, and at an N/P ratio of about 6. Molar concentrations of lipids in the lipid component of the LNPs are expressed as mol % amine lipid/DSPC/cholesterol/PEG-2k-DMG, e.g. 50/10/38.5/1.5. The final LNPs were characterized to determine the encapsulation efficiency, polydispersity index, and average particle size according to the analytical methods provided above. Analysis of average particle size, polydispersity (PDI), total RNA content and encapsulation efficiency of RNA are shown in Table 2.

As usually defined, the pKa is the pH at which an ionisable group is half protonated.

Each structure is given as a SMILES string.

As for `CCCCC/C=C\C/C=C\CCCCCCCC(=O)OCC(COC(=O)CCCCCCC/C=C\C/C=C\CCCCC)OC(=O)CCC(CCCCCCCCCCCC)OC(=O)CCCN(CC)CC` (centres unmarked) [Compound 11, 2-((4-((4-(diethylamino)butanoyl)oxy)hexadecanoyl)oxy)propane-1,3-diyl (9Z,9′Z,12Z,12′Z)-bis(octadeca-9,12-dienoate)], in data set [1], the pKa came to 5.6. Further, the “Editing Mean % Indel” value in the data set with mouse B2M gene worked out at 9.2%.
Regarding `CCCCC/C=C\C/C=C\CCCCCCCC(=O)OCC(COC(=O)CCCCCCC/C=C\C/C=C\CCCCC)OC(=O)CCC(CCCCCCCCCCCC)OC(=O)NCCN(C)C` (centres unmarked) [Compound 12, 2-((4-(((2-(dimethylamino)ethyl)carbamoyl)oxy)hexadecanoyl)oxy)propane-1,3-diyl (9Z,9′Z,12Z,12′Z)-bis(octadeca-9,12-dienoate)], the pKa in data set [1] turned out to be 6.82. In addition, the “Editing Mean % Indel” value in the data set with mouse B2M gene is reported as 5.5%.
On to `CCCCC/C=C\C/C=C\CCCCCCCC(=O)OCC(COC(=O)CCCCCCC/C=C\C/C=C\CCCCC)OC(=O)CCC(CCCCCCCCCCCC)OC(=O)OCCCCN(CC)CC` (centres unmarked) [Compound 14, 2-((4-(((4-(diethylamino)butoxy)carbonyl)oxy)hexadecanoyl)oxy)propane-1,3-diyl (9Z,9′Z,12Z,12′Z)-bis(octadeca-9,12-dienoate)], for which, in data set [1], the pKa came to 5.91. Also, the “Editing Mean % Indel” value with mouse B2M gene is given as 20.6%.
Consider `CCCCC/C=C\C/C=C\CCCCCCCC(=O)OCC(COC(=O)CCCCCCC/C=C\C/C=C\CCCCC)OC(=O)CCC(CCCCCCCCCCCC)OC(=O)NCCN(CC)CC` (centres unmarked) [Compound 15, 2-((4-(((2-(diethylamino)ethyl)carbamoyl)oxy)hexadecanoyl)oxy)propane-1,3-diyl (9Z,9′Z,12Z,12′Z)-bis(octadeca-9,12-dienoate)], for which the pKa in data set [1] is 5.9. The “Editing Mean % Indel” value in the data set with mouse B2M gene came to 18.0%.
With `CCCCC/C=C\C/C=C\CCCCCCCC(=O)OCC(COC(=O)CCCCCCC/C=C\C/C=C\CCCCC)OC(=O)CCC(CCCCCCCCCCCC)OC(=O)OCCC1CCCN1C` (centres unmarked) [Compound 16, 2-((4-(((2-(1-methylpyrrolidin-2-yl)ethoxy)carbonyl)oxy)hexadecanoyl)oxy) propane-1,3-diyl (9Z,9′Z,12Z,12′Z)-bis(octadeca-9,12-dienoate)], in data set [1], the pKa was found to be 5.72. For the same molecule, in the data set on mouse B2M gene, the “Editing Mean % Indel” value was 10.1%.
In the same order, the values of `CCCCC/C=C\C/C=C\CCCCCCCC(=O)OCC(COC(=O)CCCCCCC/C=C\C/C=C\CCCCC)OC(=O)CCC(CCCCCCCCCCCCCCCC)OC(=O)OCCCN(C)C` (centres unmarked) [Compound 17, 2-((4-(((3-(dimethylamino)propoxy)carbonyl)oxy)icosanoyl)oxy)propane-1,3-diyl (9Z,9′Z,12Z,12′Z)-bis(octadeca-9,12-dienoate)] are 6.18 and 12.3%.
`CCCCC/C=C\C/C=C\CCCCCCCC(=O)OCC(COC(=O)CCCCCCC/C=C\C/C=C\CCCCC)OC(=O)CCC(CCCCCCCCCCCCCCCC)OC(=O)OCCCN(C)CC` (centres unmarked) [Compound 18, 2-((4-(((3-(ethyl(methyl)amino)propoxy)carbonyl)oxy)icosanoyl)oxy)propane-1,3-diyl (9Z,9′Z,12Z,12′Z)-bis(octadeca-9,12-dienoate)]: the pKa in data set [1] stood at 5.83. In addition, the “Editing Mean % Indel” value in the data set with mouse B2M gene was found to be 4.5%.
In the same order, the values of `CCCCC/C=C\C/C=C\CCCCCCCC(=O)OCC(COC(=O)CCCCCCC/C=C\C/C=C\CCCCC)OC(=O)CCC(CCCCCCCCCCCCCCCC)OC(=O)OCCCN1CCCC1` (centres unmarked) [Compound 19, 2-((4-(((3-(pyrrolidin-1-yl)propoxy)carbonyl)oxy)icosanoyl)oxy)propane-1,3-diyl (9Z,9′Z,12Z,12′Z)-bis(octadeca-9,12-dienoate)] are 5.99 and 13.0%.
In the same order, the values of `CCCCC/C=C\C/C=C\CCCCCCCC(=O)OCC(COC(=O)CCCCCCC/C=C\C/C=C\CCCCC)OC(=O)CCC(CCCCCCCCCCCCCCCC)OC(=O)NCCN(C)CC` (centres unmarked) [Compound 20, 2-((4-(((2-(ethyl(methyl)amino)ethyl)carbamoyl)oxy)icosanoyl)oxy)propane-1,3-diyl (9Z,9′Z,12Z,12′Z)-bis(octadeca-9,12-dienoate)] are 6.17 and 15.4%.
In the same order, the values of `CCCCC/C=C\C/C=C\CCCCCCCC(=O)OCC(COC(=O)CCCCCCC/C=C\C/C=C\CCCCC)OC(=O)CCC(CCCCCCCCCCCCCCCC)OC(=O)NCC1CCCN1C` (centres unmarked) [Compound 21, 2-((4-((((1-methylpyrrolidin-2-yl)methyl)carbamoyl)oxy)icosanoyl)oxy)propane-1,3-diyl (9Z,9′Z,12Z,12′Z)-bis(octadeca-9,12-dienoate)] are 6.12 and 12.1%.
For the molecule `CCCCCC/C=C\COC(=O)CCCCCCCC(=O)OCC(COC(=O)CCCCCCCC(=O)OC/C=C\CCCCCC)OC(=O)CCC(CCCCCCCCCCCC)OC(=O)OCCCN(C)C` (centres unmarked) [Compound 22, O′1,O1-(2-((4-(((3-(dimethylamino)propoxy)carbonyl)oxy)hexadecanoyl)oxy)propane-1,3-diyl) 9,9′-di((Z)-non-2-en-1-yl) di(nonanedioate)], in data set [1], the pKa stood at 6.06. Besides, the “Editing Mean % Indel” value with mouse B2M gene amounted to 6.7%.
In the same order, the values of `CCCCCC/C=C\COC(=O)CCCCCCCC(=O)OCC(COC(=O)CCCCCCCC(=O)OC/C=C\CCCCCC)OC(=O)CCC(CCCCCCCCCCCC)OC(=O)NCCN(C)CC` (centres unmarked) [Compound 23, O′1,O1-(2-((4-(((2-(ethyl(methyl)amino)ethyl)carbamoyl)oxy)hexadecanoyl)oxy)propane-1,3-diyl) 9,9′-di((Z)-non-2-en-1-yl) di(nonanedioate)] are 6.19 and 7.3%.
In the same order, the values of `CCCCCC/C=C\COC(=O)CCCCCCCC(=O)OCC(COC(=O)CCCCCCCC(=O)OC/C=C\CCCCCC)OC(=O)CCC(CCCCCCCCCCCC)OC(=O)NCC1CCCN1C` (centres unmarked) [Compound 24, O′1,O1-(2-((4-((((1-methylpyrrolidin-2-yl)methyl)carbamoyl)oxy)hexadecanoyl)oxy)propane-1,3-diyl)9,9′-di((Z)-non-2-en-1-yl) di(nonanedioate)] are 6.1 and 6.8%.
On to `CCCCC/C=C\C/C=C\CCCCCCCC(=O)OCC(COC(=O)CCCCCCC/C=C\C/C=C\CCCCC)OC(=O)CCCC(CCCCCCCCCCCC)OC(=O)OCCCN(C)C` (centres unmarked) [Compound 25, 2-((5-(((3-(dimethylamino)propoxy)carbonyl)oxy)heptadecanoyl)oxy)propane-1,3-diyl (9Z,9′Z,12Z,12′Z)-bis(octadeca-9,12-dienoate)], for which the pKa in data set [1] stood at 6.12. In addition, the “Editing Mean % Indel” value with mouse B2M gene came out at 10.2%.
Turning to `CCCCC/C=C\C/C=C\CCCCCCCC(=O)OCC(COC(=O)CCCCCCC/C=C\C/C=C\CCCCC)OC(=O)CCCC(CCCCCCCCCCCC)OC(=O)OCCCN(C)CC` (centres unmarked) [Compound 26, 2-((5-(((3-(ethyl(methyl)amino)propoxy)carbonyl)oxy)heptadecanoyl)oxy) propane-1,3-diyl (9Z,9′Z,12Z,12′Z)-bis(octadeca-9,12-dienoate)], in data set [1], the pKa stood at 5.82. Further, the “Editing Mean % Indel” value in the data set on mouse B2M gene came out at 5.2%.
Take `CCCCC/C=C\C/C=C\CCCCCCCC(=O)OCC(COC(=O)CCCCCCC/C=C\C/C=C\CCCCC)OC(=O)CCCC(CCCCCCCCCCCC)OC(=O)OCCCN1CCCC1` (centres unmarked) [Compound 27, 2-((5-(((3-(pyrrolidin-1-yl)propoxy)carbonyl)oxy)heptadecanoyl)oxy)propane-1,3-diyl (9Z,9′Z,12Z,12′Z)-bis(octadeca-9,12-dienoate)]: the pKa in data set [1] amounted to 5.97. Moreover, the “Editing Mean % Indel” value in the data set with mouse B2M gene came to 13.0%.
